Literature values as cited in article PMC11865562 (Scientific Reports, 2025).

Tested on: P-gp

P-gp substrate (reported): P-gp substrate
Compound: CNC(=O)c1ccc(-c2cnc3ncc(Cc4ccc5ncccc5c4)n3n2)cc1F [Capmatinib, capmatinib]
